# Test results from patent US8119624B2, “Fused phenyl amido heterocyclic compounds” (Pfizer Inc., priority 2006, dated 2012).
# Molecular target: T1, Full-length glucokinase (beta cell isoform) (Homo sapiens, UniProt P35557)
# T1 construct: Full-length glucokinase (beta cell isoform) was His-tagged at N-terminus; His tag (N); made in house
# T1 sequence (P35557 1-465): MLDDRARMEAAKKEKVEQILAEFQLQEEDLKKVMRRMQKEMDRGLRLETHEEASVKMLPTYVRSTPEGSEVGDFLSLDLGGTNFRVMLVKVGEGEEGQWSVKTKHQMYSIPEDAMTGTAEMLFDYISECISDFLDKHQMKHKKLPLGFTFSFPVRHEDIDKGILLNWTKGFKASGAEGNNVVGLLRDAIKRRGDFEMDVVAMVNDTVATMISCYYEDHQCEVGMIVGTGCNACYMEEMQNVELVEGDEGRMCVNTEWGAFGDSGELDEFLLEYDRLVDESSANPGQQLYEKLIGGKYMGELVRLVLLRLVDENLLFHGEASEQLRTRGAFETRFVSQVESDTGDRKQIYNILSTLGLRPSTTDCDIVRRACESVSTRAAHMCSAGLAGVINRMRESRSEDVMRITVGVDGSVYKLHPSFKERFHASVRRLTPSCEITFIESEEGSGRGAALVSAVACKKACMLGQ
# Test: Glucokinase biochemical assay (PK/LDH-coupled, NADH depletion at 340 nm): % activation, EC50, % max activation
# Details: 5 mM glucose; for activation at 10 µM: 10 uM compound, % Activation=(Va/Vo−1)×100, read-out: % Activation at 10 uM; for EC50: GK activation, read-out: EC50; for Emax: fitted maximum activation, read-out: % Max Activation
# Outline: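 Activation expressed as (Va/Vo−1)×100, where initial rates with and without compound come from NADH depletion at 340 nm over 200–900 s. Enzyme is His-tagged human beta-cell GK, full length, run at room temperature in HEPES buffer with 1 mM ATP and 5 mM glucose. DMSO 1%.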
Compound,activation at 10 µM,EC50,Emax
"Cc1ccc(NC(=O)c2cc(OC3CN(S(C)(=O)=O)C3)c3cc(C)oc3c2)nc1 [Example 326, 2-Methyl-N-(5-methylpyridin-2-yl)-4-{[1-(methylsulfonyl)-azetidin-3-yl]oxy}-1-benzofuran-6-carboxamide]",76.9%,2100 nM,90%
"Cc1cc2c(OC3CN(S(C)(=O)=O)C3)cc(C(=O)Nc3ccn(C)n3)cc2o1 [Example 327, 2-Methyl-N-(1-methyl-1H-pyrazol-3-yl)-4-{[1-(methylsulfonyl)-azetidin-3-yl]oxy}-1-benzofuran-6-carboxamide]",108%,> 10000 nM,–
"Cc1cc2cc(C(=O)Nc3ccn(C)n3)cc(O[C@@H](C)Cc3ccccc3)c2s1 [Example 328, 2-Methyl-7-(1-methyl-2-phenylethoxy)-N-(1-methyl-1H-pyrazol-3-yl)-1-benzothiophene-5-carboxamide]",41.3%,> 10000 nM,–
"Cc1ccc(NC(=O)c2cc(Oc3ccc(S(C)(=O)=O)cc3)c3sc(C)cc3c2)nc1 [Example 329, 2-Methyl-N-(5-methylpyridin-2-yl)-7-[4-(methylsulfonyl)-phenoxy]-1-benzothiophene-5-carboxamide]",86.8%,1600 nM,113%
"Cc1cc2cc(C(=O)Nc3ccn(C)n3)cc(Oc3ccc(S(C)(=O)=O)cc3)c2s1 [Example 330, 2-Methyl-N-(1-methyl-1H-pyrazol-3-yl)-7-[4-(methylsulfonyl)-phenoxy]-1-benzothiophene-5-carboxamide]",125%,1700 nM,162%
"Cc1cc2cc(C(=O)Nc3ccn(C)n3)cc(Oc3ccc(C(=O)N(C)C)cc3)c2s1 [Example 331, 7-{4-[(Dimethylamino)carbonyl]phenoxy}-2-methyl-N-(1-methyl-1H-pyrazol-3-yl)-1-benzothiophene-5-carboxamide]",47.4%,320 nM,56%
"Cn1ccc(NC(=O)c2cc(Oc3ccc(S(C)(=O)=O)cc3)c3occc3c2)n1 [Example 332, N-(1-Methyl-1H-pyrazol-3-yl)-7-[4-(methylsulfonyl)phenoxy]-1-benzofuran-5-carboxamide]",57.5%,> 10000 nM,–
"Cc1ccc(NC(=O)c2cc(Oc3ccc(S(C)(=O)=O)cc3)c3occc3c2)nc1 [Example 333, N-(5-methylpyridin-2-yl)-7-[4-(methylsulfonyl)phenoxy]-1-benzofuran-5-carboxamide]",52.8%,8600 nM,106%
"CN(C)C(=O)c1ccc(Oc2cc(C(=O)Nc3ccn(C)n3)cc3ccoc23)cc1 [Example 334, 7-{4-[(Dimethylamino)carbonyl]phenoxy}-N-(1-methyl-1H-pyrazol-3-yl)-1-benzofuran-5-carboxamide]",35%,–,–
"Cc1ccc(NC(=O)c2cc(Oc3ccc(C(=O)N(C)C)cc3)c3occc3c2)nc1 [Example 335, 7-{4-[(Dimethylamino)carbonyl]phenoxy}-N-(5-methylpyridin-2-yl)-1-benzofuran-5-carboxamide]",26%,–,–
"C[C@@H](Cc1ccccc1)Oc1cc(C(=O)Nc2ccn(C)n2)cc2ccoc12 [Example 336, 7-[(1S)-1-Methyl-2-phenylethoxy]-N-(1-methyl-1H-pyrazol-3-yl)-1-benzofuran-5-carboxamide]",8.4%,–,–
"Cc1ccc(NC(=O)c2cc(Oc3ccc(S(C)(=O)=O)cc3)c3oc(C)cc3c2)nc1 [Example 337, 2-Methyl-N-(5-methylpyridin-2-yl)-7-[4-(methylsulfonyl)-phenoxy]-1-benzofuran-5-carboxamide]",42.6%,3000 nM,89%
"Cc1cc2cc(C(=O)Nc3ccn(C)n3)cc(Oc3ccc(S(C)(=O)=O)cc3)c2o1 [Example 338, 2-Methyl-N-(1-methyl-1H-pyrazol-3-yl)-7-[4-(methylsulfonyl)-phenoxy]-1-benzofuran-5-carboxamide]",84.5%,4300 nM,147%
"Cc1ccc(NC(=O)c2cc(Oc3ccc(C(=O)N(C)C)cc3)c3oc(C)cc3c2)nc1 [Example 339, 7-{4-[(Dimethylamino)carbonyl]phenoxy}-2-methyl-N-(5-methylpyridin-2-yl)-1-benzofuran-5-carboxamide]",-0.7%,–,–
"Cc1cc2cc(C(=O)Nc3ccn(C)n3)cc(O[C@@H](C)Cc3ccccc3)c2o1 [Example 340, 2-Methyl-7-[(1S)-1-methyl-2-phenylethoxy]-N-(1-methyl-1H-pyrazol-3-yl)-1-benzofuran-5-carboxamide]",41.2%,> 10000 nM,–
"CN(C)C(=O)c1ccc(Oc2cc(C(=O)Nc3ccn(C)n3)cc3occc23)cc1F [Example 341, 4-(4-(Dimethylcarbamoyl)-3-fluorophenoxy)-N-(1-methyl-1H-pyrazol-3-yl)benzofuran-6-carboxamide]",59%,1700 nM,69%

Compound,activation at 10 µM,EC50,Emax
"Cc1ccc(NC(=O)c2cc(Oc3ccc(C(=O)N(C)C)c(F)c3)c3ccoc3c2)nc1 [Example 342, 4-(4-(Dimethylcarbamoyl)-3-fluorophenoxy)-N-(5-methylpyridin-2-yl)benzofuran-6-carboxamide]",15%,–,–
Cn1ccc(NC(=O)c2cc(Oc3ccc(S(C)(=O)=O)cc3)c3ccoc3c2)n1 [Example 343],82.5%,> 10000 nM,–
"Cc1ccc(NC(=O)c2cc(OC(C)C)cc3occc23)nc1 [Example 344, 6-Isopropoxy-N-(5-methylpyridin-2-yl)benzofuran-4-carboxamide]",89.5%,1400 nM,106%
"Cc1ccc(NC(=O)c2cc(OC(C)C)cc3oc(Br)cc23)nc1 [Example 345, 2-Bromo-6-isopropoxy-N-(5-methylpyridin-2-yl)benzofuran-4-carboxamide]",75.6%,4000 nM,116%
"C=C(C)c1cc2c(C(=O)Nc3ccc(C)cn3)cc(OC(C)C)cc2o1 [Example 346, 6-Isopropoxy-N-(5-methylpyridin-2-yl)-2-(prop-1-en-2-yl)benzofuran-4-carboxamide]",69.2%,1500 nM,89%
"Cc1ccc(NC(=O)c2cc(OC(C)C)cc3oc(-c4ccccc4)cc23)nc1 [Example 347, 6-Isopropoxy-N-(5-methylpyridin-2-yl)-2-phenylbenzofuran-4-carboxamide]",113%,160 nM,158%
"Cc1ccc(NC(=O)c2cc(OC(C)C)cc3oc(C(C)C)cc23)nc1 [Example 348, 6-Isopropoxy-2-isopropyl-N-(5-methylpyridin-2-yl)benzofuran-4-carboxamide]",16.6%,–,–
"Cc1ccc(NC(=O)c2cc(OC(C)C)cc3oc(C(=O)N4CCC4)cc23)nc1 [Example 349, 2-(Azetidine-1-carbonyl)-6-isopropoxy-N-(5-methylpyridin-2-yl)benzofuran-4-carboxamide]",-32.1%,–,–
"Cc1ccc(NC(=O)c2cc(Oc3ccc(S(C)(=O)=O)cc3)c3c(C)csc3c2)nc1 [Example 350, 3-Methyl-N-(5-methylpyridin-2-yl)-4-[4-(methylsulfonyl)-phenoxy]-1-benzothiophene-6-carboxamide]",11.2%,–,–
"Cc1csc2cc(C(=O)Nc3ccn(C)n3)cc(Oc3ccc(S(C)(=O)=O)cc3)c12 [Example 351, 3-Methyl-N-(1-methyl-1H-pyrazol-3-yl)-4-[4-(methylsulfonyl)-phenoxy]-1-benzothiophene-6-carboxamide]",0.9%,–,–
"Cc1csc2cc(C(=O)Nc3ccn(C)n3)cc(Oc3ccc(C(=O)N(C)C)cc3)c12 [Example 352, 4-{4-[(Dimethylamino)carbonyl]phenoxy}-3-methyl-N-(1-methyl-1H-pyrazol-3-yl)-1-benzothiophene-6-carboxamide]",12.3%,–,–
"Cc1ccc(NC(=O)c2cc(Oc3ccc(C(=O)N(C)C)cc3)c3c(C)csc3c2)nc1 [Example 353, 4-{4-[(Dimethylamino)carbonyl]phenoxy}-3-methyl-N-(5-methylpyridin-2-yl)-1-benzothiophene-6-carboxamide]",3.4%,–,–
"Cc1csc2cc(C(=O)Nc3ccn(C)n3)cc(O[C@@H](C)Cc3ccccc3)c12 [Example 354, 3-Methyl-4-[(1S)-1-methyl-2-phenylethoxy]-N-(1-methyl-1H-pyrazol-3-yl)-1-benzothiophene-6-carboxamide]",3.5%,–,–
"Cc1ccc(NC(=O)c2cc(Oc3ccc(S(C)(=O)=O)cc3)c3ccsc3c2)nc1 [Example 355, 4-(4-Methanesulfonyl-phenoxy)-benzo[b]thiophene-6-carboxylic acid(5-methyl-pyridin-2-yl)-amide]",114%,520 nM,110%
"Cn1ccc(NC(=O)c2cc(Oc3ccc(S(C)(=O)=O)cc3)c3ccsc3c2)n1 [Example 356, 4-(4-(Methylsulfonyl)phenoxy)-N-(1-methyl-1H-pyrazol-3-yl)benzo-[b]-thiophene-6-carboxamide]",77.4%,> 10000 nM,–
